Values after ≈ are worked out from the molar mass of the structure shown. Values joined by “and” are separate entries in the source; they are usually repeats but may differ in a detail not shown here. Equal values may be shown once. Each block holds one compound with its values, some of them ahead of it.
Legend:
Experiment in all cases: ≥ marks a high value that may be exact or a test limit, other limits are often not marked, values filed in µg/mL are converted to µM
[1] = test system: Yersinia enterocolitica O:9 96-C
Candida albicans SC5314 = test system: Candida albicans SC5314
Klebsiella pneumoniae = test system: Klebsiella pneumoniae
[2] = test system: Candida albicans ATCC 10261
[3] = test system: Pseudomonas aeruginosa ATCC 27853
Serratia marcescens = test system: Serratia marcescens
[4] = test system: Staphylococcus carnosus KHS
Serratia rubidaea X01 = test system: Serratia rubidaea X01
[5] = test system: Psychrobacter faecalis X29
[6] = test system: Rhodococcus rhodochrous X15
[7] = test system: Bacillus licheniformis X39
[8] = test system: Staphylococcus aureus ATCC 2592
[9] = test system: Candida albicans ATCC 2002
[10] = test system: Staphylococcus aureus 1056
Escherichia coli O157:H7 = test system: Escherichia coli O157:H7
[11] = test system: Acinetobacter baumannii ATCC 19606
[12] = test system: Escherichia coli ATCC 23716
Yersinia pestis KIM pYV = test system: Yersinia pestis KIM pYV
Staphylococcus aureus = test system: Staphylococcus aureus
[13] = test system: Pseudomonas aeruginosa CUN 4158-02
[14] = test system: Staphylococcus aureus ΔmprF
[15] = test system: Staphylococcus aureus SA113
[16] = test system: Bordetella bronchiseptica CUN 11844-99
[17] = test system: Brucella abortus 9.49 (per-)
[18] = test system: Staphylococcus aureus ATCC 43300
[19] = test system: Escherichia coli ATCC 25922
[20] = test system: Staphylococcus aureus ΔmprFpRBsyn
[21] = test system: Ureaplasma urealyticum strain 2
[22] = test system: Ureaplasma urealyticum strain 1
Escherichia coli mcr106 = test system: Escherichia coli mcr106
Enterococcus faecium = test system: Enterococcus faecium
[23] = test system: Staphylococcus aureus 30371
[24] = test system: Enterococcus faecalis CDC 21
[25] = test system: Listeria monocytogenes EGD
Escherichia coli ML-35p = test system: Escherichia coli ML-35p
[26] = test system: Pseudomonas aeruginosa SBI-N
[27] = test system: Staphylococcus aureus 28841
[28] = test system: Pseudomonas aeruginosa MR2123
[29] = test system: Salmonella enterica subsp. enterica serovar Typhimurium ATCC 14028s
[30] = test system: Staphylococcus aureus 930918-3
[31] = test system: Salmonella enterica serovar typhimurium MS7953s
Escherichia coli BAS 849 = test system: Escherichia coli BAS 849
[32] = test system: Pseudomonas aeruginosa MR3007
[33] = test system: Enterococcus faecium 94-132

SMILES: CC[C@H](C)[C@H](NC(=O)[C@H](C)NC(=O)[C@@H](NC(=O)[C@H](Cc1cnc[nH]1)NC(=O)[C@@H]1CCCN1C(=O)[C@H](CC(C)C)NC(=O)[C@@H](NC(=O)[C@H](C)NC(=O)[C@H](CCCN=C(N)N)NC(=O)CNC(=O)[C@@H](NC(=O)[C@H](CCCN=C(N)N)NC(=O)[C@H](C)NC(=O)[C@@H](NC(=O)[C@@H](NC(=O)[C@H](CCCN=C(N)N)NC(=O)[C@@H](NC(=O)[C@H](C)NC(=O)[C@H](CO)NC(=O)[C@H](CCCN=C(N)N)NC(=O)[C@H](CC(C)C)NC(=O)[C@H](C)N)C(C)C)[C@@H](C)O)C(C)C)C(C)C)C(C)C)C(C)C)C(N)=O [ALRSAVRTVARVGRAVLPHVAI]
MIC [1]: 3.1 µM and 1.6 µM
MIC (Candida albicans SC5314): 6.3 µM and 3.1 µM
MIC (Klebsiella pneumoniae): > 25 µM and 12.5 µM
MIC [2]: 6.3 µM and 3.1 µM
MIC [3]: 12.5 µM and 6.3 µM
MIC (Serratia marcescens): 25 µM (≈ 57.8 µg/mL)

SMILES: CC[C@H](C)[C@H](NC(=O)[C@H](CCC(=O)O)NC(=O)[C@H](CCCCN)NC(=O)[C@H](C)NC(=O)[C@H](C)NC(=O)[C@@H](NC(=O)[C@H](CCCCN)NC(=O)CNC(=O)[C@H](Cc1ccccc1)NC(=O)[C@H](CC(=O)O)NC(=O)[C@H](CCCCN)NC(=O)[C@H](CC(C)C)NC(=O)[C@@H](NC(=O)[C@H](CO)NC(=O)[C@H](CCSC)NC(=O)[C@H](CC(C)C)NC(=O)CN)[C@@H](C)O)[C@@H](C)O)C(=O)N[C@@H](C)C(=O)N[C@@H](CCC(N)=O)C(=O)N[C@@H](CO)C(=O)N[C@@H](CC(C)C)C(=O)N[C@@H](CC(C)C)C(=O)N[C@@H](CO)C(=O)N[C@H](C(=O)N[C@@H](C)C(=O)N[C@@H](CO)C(=O)N[C@H]1CSSC[C@@H](C(=O)O)NC(=O)[C@H]([C@@H](C)O)NC(=O)[C@H](CCCCN)NC(=O)[C@H](C)NC(=O)[C@H](CC(C)C)NC(=O)[C@H](CCCCN)NC1=O)[C@@H](C)O [GLMSTLKDFGKTAAKEIAQSLLSTASCKLAKTC]
MIC [4]: 1.84 µM (≈ 6.3 µg/mL)
MIC (Serratia rubidaea X01): 29.3 µM (≈ 99.9 µg/mL)
MIC [5]: 1.84 µM (≈ 6.3 µg/mL)
MIC [6]: 0.468 µM (≈ 1.6 µg/mL)
MIC [7]: 14.6 µM (≈ 50 µg/mL)
MIC [8]: 3.66 µM (≈ 12.5 µg/mL)
MIC [9]: ≥ 58.5 µM

SMILES: CC[C@H](C)[C@H](NC(=O)[C@H](CCCN=C(N)N)NC(=O)[C@H](CCCCN)NC(=O)[C@H](CO)NC(=O)[C@@H](NC(=O)[C@@H](N)CCCCN)[C@@H](C)CC)C(=O)N[C@@H](CC(C)C)C(=O)N[C@H](C(=O)NCC(=O)N[C@@H](CCCCN)C(=O)N[C@@H](CCCCN)C(N)=O)[C@@H](C)O [KISKRILTGKK]
MIC [11]: > 201 µM
MIC [12]: ≥ 201 µM
MIC (Yersinia pestis KIM pYV): ≥ 201 µM
MIC (Staphylococcus aureus): > 201 µM
MIC [13]: ≥ 201 µM
MIC [14]: ≥ 201 µM
MIC [15]: ≥ 201 µM
MIC [16]: ≥ 201 µM
MIC [17]: ≥ 201 µM
MIC [18]: > 201 µM
MIC [19]: > 201 µM
MIC [20]: ≥ 201 µM

Further lines, results first:

MIC [10]: 0.594 µM (≈ 2.78 µg/mL)
MIC (Escherichia coli O157:H7): 0.515 µM (≈ 2.41 µg/mL)
SMILES: CC[C@H](C)[C@H](N)C(=O)N1CCC[C@H]1C(=O)N[C@@H](CCCN=C(N)N)C(=O)N1CCC[C@H]1C(=O)N[C@@H](CC(C)C)C(=O)N[C@@H](CC(=O)O)C(=O)N1CCC[C@H]1C(=O)N[C@H]1CSSC[C@@H]2NC(=O)[C@H](CO)NC(=O)[C@H](CCCCN)NC(=O)CNC(=O)[C@H](CC(N)=O)NC(=O)[C@H](CCCN=C(N)N)NC(=O)[C@@H]3CSSC[C@H](NC(=O)[C@H](CCCN=C(N)N)NC(=O)CNC(=O)[C@H](CC(N)=O)NC(=O)[C@H](CCC(N)=O)NC(=O)[C@H](C)NC(=O)[C@H]([C@@H](C)CC)NC1=O)C(=O)N[C@@H](Cc1ccccc1)C(=O)N[C@@H]([C@@H](C)O)C(=O)NCC(=O)N[C@@H]([C@@H](C)CC)C(=O)N[C@@H](CSSC[C@@H](C(=O)N[C@@H](CCCN=C(N)N)C(=O)N[C@@H](CCCN=C(N)N)C(=O)N[C@@H](CCCN=C(N)N)C(=O)O)NC2=O)C(=O)N[C@@H](CCCN=C(N)N)C(=O)N[C@@H](Cc1ccc(O)cc1)C(=O)N1CCC[C@H]1C(=O)N[C@@H](Cc1ccc(O)cc1)C(=O)N[C@@H](Cc1ccccc1)C(=O)N[C@@H](Cc1c[nH]c2ccccc12)C(=O)N[C@@H]([C@@H](C)CC)C(=O)NCC(=O)N[C@@H]([C@@H](C)O)C(=O)N3 [IPRPLDPCIAQNGRCFTGICRYPYFWIGTCRNGKSCCRRR]

MIC [21]: ≥ 46 µM
MIC [22]: ≥ 46 µM
SMILES: CC[C@H](C)[C@H](NC(=O)[C@H](CCSC)NC(=O)[C@H](CC(=O)O)NC(=O)[C@@H](NC(=O)[C@H](CCSC)NC(=O)[C@H](Cc1ccccc1)NC(=O)[C@H](CC(N)=O)NC(=O)[C@H](Cc1ccccc1)NC(=O)CNC(=O)[C@H](CCCCN)NC(=O)[C@H](CC(N)=O)NC(=O)[C@H](CO)NC(=O)[C@@H](N)CCCN=C(N)N)C(C)C)C(=O)N[C@@H](CCC(N)=O)C(=O)N[C@@H](C)C(=O)N[C@@H](CC(C)C)C(=O)N[C@@H](CO)C(=O)N[C@@H](CCCCN)C(N)=O [RSNKGFNFMVDMIQALSK]

MIC (Escherichia coli mcr106): 0.266 µM (≈ 0.7 µg/mL)
MIC (Enterococcus faecium): 0.19 µM (≈ 0.5 µg/mL)
MIC [23]: 2.2 µM (≈ 5.8 µg/mL)
MIC [24]: 0.988 µM (≈ 2.6 µg/mL)
MIC [25]: 0.152 µM (≈ 0.4 µg/mL)
MIC (Escherichia coli ML-35p): 0.494 µM (≈ 1.3 µg/mL)
MIC [26]: 0.342 µM (≈ 0.9 µg/mL)
MIC [27]: 0.95 µM (≈ 2.5 µg/mL)
MIC [28]: 0.266 µM (≈ 0.7 µg/mL)
MIC [29]: 0.57 µM (≈ 1.5 µg/mL)
MIC [30]: 1.48 µM (≈ 3.9 µg/mL)
MIC [31]: 0.494 µM (≈ 1.3 µg/mL)
MIC (Escherichia coli BAS 849): 0.266 µM (≈ 0.7 µg/mL)
MIC [32]: 0.342 µM (≈ 0.9 µg/mL)
MIC [33]: 0.114 µM (≈ 0.3 µg/mL)
MIC (Klebsiella pneumoniae): 1.06 µM (≈ 2.8 µg/mL)
SMILES: CC[C@H](C)[C@H](NC(=O)[C@H](CCCCN)NC(=O)CNC(=O)[C@H](CC(C)C)NC(=O)[C@H](Cc1ccccc1)NC(=O)[C@H](CCC(N)=O)NC(=O)[C@H](Cc1ccccc1)NC(=O)[C@@H](N)C(C)C)C(=O)N[C@H](C(=O)N[C@@H](CCCCN)C(=O)N[C@@H](CCCCN)C(=O)N[C@H](C(=O)NCC(=O)N[C@@H](CC(N)=O)C(=O)N[C@@H](Cc1ccccc1)C(=O)N[C@H](C(=O)N[C@@H](CCCCN)C(=O)NCC(=O)N[C@@H](Cc1ccccc1)C(=O)N[C@@H](CO)C(=O)N[C@@H](CCCCN)C(=O)N[C@H](C(=O)N[C@@H](Cc1ccccc1)C(=O)O)C(C)C)C(C)C)C(C)C)[C@@H](C)CC [VFQFLGKIIKKVGNFVKGFSKVF]
